{"source": "PubChem BioAssay AID2060900", "about": "(Molecular Pharmacology Branch, DTP, NCI, 2025)", "system": "521955-158-R2-J5-PDC complex spheroids, viability", "assay": "Anticancer human tumor 521955-158-R2-J5-PDC patient-derived pancreatic carcinoma cell line growth inhibition [RAS]", "details": "for viability, T/C: stronger effect = lower value", "in_short": "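Agents were tested in combination matrices in half-log decrements from a top concentration at or near clinical Cmax (10 microM if undetermined). Targets were multi-cell spheroids of tumour lines plus HUVEC and MSC stromal cells.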", "data": [{"molecule": "Nc1ccn(C2OC(CO)C(O)C2(F)F)c(=O)n1", "note": "(stereo unspecified) + CCn1c(-c2cccnc2C(C)OC)c2c3cc(ccc31)N1CCOC(CC(NC(=O)C(C(C)C)N(C)C(=O)C3(F)CCN(C(=O)C#CC(C)(C)N(C)C)CC3)C(=O)N3CCCC(N3)C(=O)OCC(C)(C)C2)C1;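 also: compound exposure lasted seven days before the viability read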;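 as to viability, T/C: spheroids also contain HUVEC endothelial cells and mesenchymal stem cells as stroma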", "values": [{"measurement": "IC50", "setting": "curve of first compound, second compound 0.000949 µM", "value": 156, "unit": "nM"}, {"measurement": "IC50", "setting": "curve of first compound, second compound 0.003 µM", "value": 204, "unit": "nM"}, {"measurement": "IC50", "setting": "curve of first compound, second compound 0.00949 µM", "value": 251, "unit": "nM"}, {"measurement": "IC50", "setting": "curve of first compound, second compound 0.03 µM", "value": 284, "unit": "nM"}, {"measurement": "IC50", "setting": "curve of first compound, second compound 0.0949 µM", "value": 190, "unit": "nM"}, {"measurement": "IC50", "setting": "curve of first compound, second compound 0.3 µM", "value": 109, "unit": "nM"}, {"measurement": "viability, T/C", "setting": "second compound 0.000949 µM, first compound 0.00316 µM", "value": 112, "unit": "%"}, {"measurement": "viability, T/C", "setting": "second compound 0.000949 µM, first compound 0.01 µM", "value": 80.2, "unit": "%"}, {"measurement": "viability, T/C", "setting": "second compound 0.000949 µM, first compound 0.0316 µM", "value": 75.4, "unit": "%"}, {"measurement": "viability, T/C", "setting": "second compound 0.000949 µM, first compound 0.1 µM", "value": 56.8, "unit": "%"}, {"measurement": "viability, T/C", "setting": "second compound 0.000949 µM, first compound 0.316 µM", "value": 51.6, "unit": "%"}, {"measurement": "viability, T/C", "setting": "second compound 0.000949 µM, first compound 1 µM", "value": 14.4, "unit": "%"}, {"measurement": "viability, T/C", "setting": "second compound 0.003 µM, first compound 0.00316 µM", "value": 97.8, "unit": "%"}, {"measurement": "viability, T/C", "setting": "second compound 0.003 µM, first compound 0.01 µM", "value": 90.3, "unit": "%"}, {"measurement": "viability, T/C", "setting": "second compound 0.003 µM, first compound 0.0316 µM", "value": 79.3, "unit": "%"}, {"measurement": "viability, T/C", "setting": "second compound 0.003 µM, first compound 0.1 µM", "value": 67.1, "unit": "%"}, {"measurement": "viability, T/C", "setting": "second compound 0.003 µM, first compound 0.316 µM", "value": 39.6, "unit": "%"}, {"measurement": "viability, T/C", "setting": "second compound 0.003 µM, first compound 1 µM", "value": 11.8, "unit": "%"}, {"measurement": "viability, T/C", "setting": "second compound 0.00949 µM, first compound 0.00316 µM", "value": 85.3, "unit": "%"}, {"measurement": "viability, T/C", "setting": "second compound 0.00949 µM, first compound 0.01 µM", "value": 91, "unit": "%"}, {"measurement": "viability, T/C", "setting": "second compound 0.00949 µM, first compound 0.0316 µM", "value": 75.9, "unit": "%"}, {"measurement": "viability, T/C", "setting": "second compound 0.00949 µM, first compound 0.1 µM", "value": 79.8, "unit": "%"}, {"measurement": "viability, T/C", "setting": "second compound 0.00949 µM, first compound 0.316 µM", "value": 42.6, "unit": "%"}, {"measurement": "viability, T/C", "setting": "second compound 0.00949 µM, first compound 1 µM", "value": 15.6, "unit": "%"}, {"measurement": "viability, T/C", "setting": "second compound 0.03 µM, first compound 0.00316 µM", "value": 95.5, "unit": "%"}, {"measurement": "viability, T/C", "setting": "second compound 0.03 µM, first compound 0.01 µM", "value": 78.9, "unit": "%"}, {"measurement": "viability, T/C", "setting": "second compound 0.03 µM, first compound 0.0316 µM", "value": 69, "unit": "%"}, {"measurement": "viability, T/C", "setting": "second compound 0.03 µM, first compound 0.1 µM", "value": 69.4, "unit": "%"}, {"measurement": "viability, T/C", "setting": "second compound 0.03 µM, first compound 0.316 µM", "value": 53.4, "unit": "%"}, {"measurement": "viability, T/C", "setting": "second compound 0.03 µM, first compound 1 µM", "value": 10.1, "unit": "%"}, {"measurement": "viability, T/C", "setting": "second compound 0.0949 µM, first compound 0.00316 µM", "value": 79.5, "unit": "%"}, {"measurement": "viability, T/C", "setting": "second compound 0.0949 µM, first compound 0.01 µM", "value": 77.9, "unit": "%"}, {"measurement": "viability, T/C", "setting": "second compound 0.0949 µM, first compound 0.0316 µM", "value": 62.5, "unit": "%"}, {"measurement": "viability, T/C", "setting": "second compound 0.0949 µM, first compound 0.1 µM", "value": 65.2, "unit": "%"}, {"measurement": "viability, T/C", "setting": "second compound 0.0949 µM, first compound 0.316 µM", "value": 41.2, "unit": "%"}, {"measurement": "viability, T/C", "setting": "second compound 0.0949 µM, first compound 1 µM", "value": 11.2, "unit": "%"}, {"measurement": "viability, T/C", "setting": "second compound 0.3 µM, first compound 0.00316 µM", "value": 72.2, "unit": "%"}, {"measurement": "viability, T/C", "setting": "second compound 0.3 µM, first compound 0.01 µM", "value": 66.9, "unit": "%"}, {"measurement": "viability, T/C", "setting": "second compound 0.3 µM, first compound 0.0316 µM", "value": 59.6, "unit": "%"}, {"measurement": "viability, T/C", "setting": "second compound 0.3 µM, first compound 0.1 µM", "value": 51.8, "unit": "%"}, {"measurement": "viability, T/C", "setting": "second compound 0.3 µM, first compound 0.316 µM", "value": 36.5, "unit": "%"}, {"measurement": "viability, T/C", "setting": "second compound 0.3 µM, first compound 1 µM", "value": 12.6, "unit": "%"}]}, {"molecule": "NC1c2ccccc2OC12CCN(c1cnc3c(N4CCCc5ncccc54)n[nH]c3n1)CC2", "note": "(stereo unspecified) + C=CC(=O)N1CCN(c2nc(OCC3CCCN3C)nc3c(F)c(-c4nc(N)cc(C)c4C(F)(F)F)c(Cl)cc23)C(C)C1", "values": [{"measurement": "IC50", "setting": "curve of first compound, second compound 0.00316 µM", "value": "> 10000", "unit": "nM"}, {"measurement": "IC50", "setting": "curve of first compound, second compound 0.01 µM", "value": "> 10000", "unit": "nM"}, {"measurement": "IC50", "setting": "curve of first compound, second compound 0.0316 µM", "value": "> 10000", "unit": "nM"}, {"measurement": "IC50", "setting": "curve of first compound, second compound 0.1 µM", "value": 10000, "unit": "nM"}, {"measurement": "IC50", "setting": "curve of first compound, second compound 0.316 µM", "value": "> 10000", "unit": "nM"}, {"measurement": "IC50", "setting": "curve of first compound, second compound 1 µM", "value": "> 10000", "unit": "nM"}, {"measurement": "viability, T/C", "setting": "second compound 0.00316 µM, first compound 0.0316 µM", "value": 69.6, "unit": "%"}, {"measurement": "viability, T/C", "setting": "second compound 0.00316 µM, first compound 0.1 µM", "value": 69.4, "unit": "%"}, {"measurement": "viability, T/C", "setting": "second compound 0.00316 µM, first compound 0.316 µM", "value": 64.4, "unit": "%"}, {"measurement": "viability, T/C", "setting": "second compound 0.00316 µM, first compound 1 µM", "value": 61.5, "unit": "%"}, {"measurement": "viability, T/C", "setting": "second compound 0.00316 µM, first compound 3.16 µM", "value": 54.8, "unit": "%"}, {"measurement": "viability, T/C", "setting": "second compound 0.00316 µM, first compound 10 µM", "value": 59.3, "unit": "%"}, {"measurement": "viability, T/C", "setting": "second compound 0.01 µM, first compound 0.0316 µM", "value": 68, "unit": "%"}, {"measurement": "viability, T/C", "setting": "second compound 0.01 µM, first compound 0.1 µM", "value": 68, "unit": "%"}, {"measurement": "viability, T/C", "setting": "second compound 0.01 µM, first compound 0.316 µM", "value": 62.1, "unit": "%"}, {"measurement": "viability, T/C", "setting": "second compound 0.01 µM, first compound 1 µM", "value": 63.2, "unit": "%"}, {"measurement": "viability, T/C", "setting": "second compound 0.01 µM, first compound 3.16 µM", "value": 53.7, "unit": "%"}, {"measurement": "viability, T/C", "setting": "second compound 0.01 µM, first compound 10 µM", "value": 65.6, "unit": "%"}, {"measurement": "viability, T/C", "setting": "second compound 0.0316 µM, first compound 0.0316 µM", "value": 65.8, "unit": "%"}, {"measurement": "viability, T/C", "setting": "second compound 0.0316 µM, first compound 0.1 µM", "value": 79.6, "unit": "%"}, {"measurement": "viability, T/C", "setting": "second compound 0.0316 µM, first compound 0.316 µM", "value": 69.1, "unit": "%"}, {"measurement": "viability, T/C", "setting": "second compound 0.0316 µM, first compound 1 µM", "value": 61.5, "unit": "%"}, {"measurement": "viability, T/C", "setting": "second compound 0.0316 µM, first compound 3.16 µM", "value": 65.3, "unit": "%"}, {"measurement": "viability, T/C", "setting": "second compound 0.0316 µM, first compound 10 µM", "value": 51.8, "unit": "%"}, {"measurement": "viability, T/C", "setting": "second compound 0.1 µM, first compound 0.0316 µM", "value": 73, "unit": "%"}, {"measurement": "viability, T/C", "setting": "second compound 0.1 µM, first compound 0.1 µM", "value": 79.8, "unit": "%"}, {"measurement": "viability, T/C", "setting": "second compound 0.1 µM, first compound 0.316 µM", "value": 55.1, "unit": "%"}, {"measurement": "viability, T/C", "setting": "second compound 0.1 µM, first compound 1 µM", "value": 57.7, "unit": "%"}, {"measurement": "viability, T/C", "setting": "second compound 0.1 µM, first compound 3.16 µM", "value": 51.8, "unit": "%"}, {"measurement": "viability, T/C", "setting": "second compound 0.1 µM, first compound 10 µM", "value": 58.8, "unit": "%"}, {"measurement": "viability, T/C", "setting": "second compound 0.316 µM, first compound 0.0316 µM", "value": 75.4, "unit": "%"}, {"measurement": "viability, T/C", "setting": "second compound 0.316 µM, first compound 0.1 µM", "value": 59.2, "unit": "%"}, {"measurement": "viability, T/C", "setting": "second compound 0.316 µM, first compound 0.316 µM", "value": 58.1, "unit": "%"}, {"measurement": "viability, T/C", "setting": "second compound 0.316 µM, first compound 1 µM", "value": 59.5, "unit": "%"}, {"measurement": "viability, T/C", "setting": "second compound 0.316 µM, first compound 3.16 µM", "value": 46.1, "unit": "%"}, {"measurement": "viability, T/C", "setting": "second compound 0.316 µM, first compound 10 µM", "value": 60.5, "unit": "%"}, {"measurement": "viability, T/C", "setting": "second compound 1 µM, first compound 0.0316 µM", "value": 70.3, "unit": "%"}, {"measurement": "viability, T/C", "setting": "second compound 1 µM, first compound 0.1 µM", "value": 61.4, "unit": "%"}, {"measurement": "viability, T/C", "setting": "second compound 1 µM, first compound 0.316 µM", "value": 54.7, "unit": "%"}, {"measurement": "viability, T/C", "setting": "second compound 1 µM, first compound 1 µM", "value": 69.6, "unit": "%"}, {"measurement": "viability, T/C", "setting": "second compound 1 µM, first compound 3.16 µM", "value": 60.4, "unit": "%"}, {"measurement": "viability, T/C", "setting": "second compound 1 µM, first compound 10 µM", "value": 58.3, "unit": "%"}]}, {"molecule": "CCC(CC)c1cc(NC2CCC(N)C2)n2nccc2n1", "note": "(stereo unspecified)", "values": [{"measurement": "viability, T/C", "setting": "compound 0.0316 µM", "value": "110% [middle of 4 runs]"}, {"measurement": "viability, T/C", "setting": "compound 0.1 µM", "value": "91.2% [middle of 4 runs]"}, {"measurement": "viability, T/C", "setting": "compound 0.316 µM", "value": "122% [middle of 4 runs]"}, {"measurement": "viability, T/C", "setting": "compound 1 µM", "value": "111% [middle of 4 runs]"}, {"measurement": "viability, T/C", "setting": "compound 3.16 µM", "value": "9.87% [middle of 4 runs]"}, {"measurement": "viability, T/C", "setting": "compound 10 µM", "value": "10.2% [middle of 4 runs]"}, {"measurement": "IC50", "setting": "curve of compound", "value": "1.97 µM [middle of 4 runs]"}]}]}
